Experimental data reported in patent US12391664B2, “GluN2C/D subunit selective antagonists of the N-methyl-D-aspartate receptor” (Emory University, priority 2018, dated 2025).
Like-named read-outs stand apart in the source and are kept apart here.

Legend:
Format in all cases: cell-based
[1] = target: T1, recombinant rat GluN1/GluN2C (Rattus norvegicus, UniProt Q00961); test: Two-electrode voltage-clamp recordings in Xenopus laevis oocytes, GluN2C; conditions: for I3 μM/Icontrol (mean ± SEM, %) GluN2C: 3 μM compound with 100 μM glutamate and 30 μM glycine, control set as 1
T1 construct: expressed in transfected cells; host or cells: Xenopus laevis oocytes injected with cRNA (GluN1:GluN2 ratio 1:2)
T1 sequence (Q00961 20-1237, other chains not shown): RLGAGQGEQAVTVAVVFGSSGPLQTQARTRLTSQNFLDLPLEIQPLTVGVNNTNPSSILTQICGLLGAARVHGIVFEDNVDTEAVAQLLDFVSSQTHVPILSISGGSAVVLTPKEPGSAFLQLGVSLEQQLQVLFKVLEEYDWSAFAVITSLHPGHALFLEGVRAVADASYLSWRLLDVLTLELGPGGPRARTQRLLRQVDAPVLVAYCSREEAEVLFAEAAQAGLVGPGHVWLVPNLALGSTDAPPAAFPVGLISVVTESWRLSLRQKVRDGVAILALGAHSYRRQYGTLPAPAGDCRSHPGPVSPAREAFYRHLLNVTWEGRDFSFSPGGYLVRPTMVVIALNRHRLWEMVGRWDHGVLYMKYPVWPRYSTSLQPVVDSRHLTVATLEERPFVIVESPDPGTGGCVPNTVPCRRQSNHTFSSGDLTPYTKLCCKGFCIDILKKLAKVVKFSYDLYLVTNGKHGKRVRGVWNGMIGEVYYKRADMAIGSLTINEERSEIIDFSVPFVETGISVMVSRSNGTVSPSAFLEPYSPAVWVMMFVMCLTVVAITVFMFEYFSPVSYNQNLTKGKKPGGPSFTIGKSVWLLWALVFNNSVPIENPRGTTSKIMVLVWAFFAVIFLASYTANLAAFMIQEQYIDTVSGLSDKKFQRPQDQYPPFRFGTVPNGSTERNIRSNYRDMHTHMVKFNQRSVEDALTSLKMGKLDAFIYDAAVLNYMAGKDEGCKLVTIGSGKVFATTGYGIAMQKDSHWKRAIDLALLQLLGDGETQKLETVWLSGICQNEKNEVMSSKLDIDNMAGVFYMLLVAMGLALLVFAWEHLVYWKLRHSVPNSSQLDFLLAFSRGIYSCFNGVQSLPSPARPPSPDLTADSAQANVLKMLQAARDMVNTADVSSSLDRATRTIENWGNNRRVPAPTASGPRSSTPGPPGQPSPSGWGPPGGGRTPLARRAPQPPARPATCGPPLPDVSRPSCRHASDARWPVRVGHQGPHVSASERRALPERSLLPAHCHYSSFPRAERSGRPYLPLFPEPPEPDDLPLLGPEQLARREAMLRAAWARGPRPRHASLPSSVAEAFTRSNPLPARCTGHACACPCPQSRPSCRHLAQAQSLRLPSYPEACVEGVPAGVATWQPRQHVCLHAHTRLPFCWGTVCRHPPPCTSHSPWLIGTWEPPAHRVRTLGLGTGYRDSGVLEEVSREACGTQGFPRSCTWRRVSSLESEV
Protocol: (§1) All target compounds were evaluated for activity by the Traynelis laboratory at Emory University using two-electrode voltage-clamp recordings performed in Xenopus laevis oocytes expressing recombinant GluN2A-D subunits (Table 1). […] Two ester compounds 997-65 and 997-66 also performed no inhibition at GluN2A to GluN2D receptors. […] Consequently, for the compounds that Acker et al. already published, it was necessary to increase the concentration to 100 μM when collecting data for a concentration effect curve. […] Therefore, under this condition, we can only conclude that compound 997-67 remained potent at GluN2C/D-containing receptors, but its selectivity over GluN2A- and GluN2B-containing receptors could not be compared to 997-57. […] Finally, replacing the carboxylic acid to the bio-isostere amide yielded compounds 997-96 and 997-115, which dropped the potency 2- to 4-fold in comparison to their corresponding acids 997-74 and 997-114.
(§2) Two-electrode voltage-clamp recordings were performed in Xenopus laevis oocytes that were injected with mRNA to express recombinant rat GluN1/GluN2A, GluN1/GluN2B, GluN1/GluN2C, and GluN1/GluN2D. The recordings using unfertilized oocytes from Xenopus laevis were permitted by Emory University Institutional Animal Care and Use Committee (IACUC). An automatic injector (Nanoject II, Drummond Scientific) was used for cRNA injection using the pipettes filled with mineral oil. The cRNA that transcribed in vitro via the mMessage Machine kit (Ambion) was diluted with nuclease-free water, and then injected at GluN1/GluN2 with a ratio of 1:2. The oocytes were stored in Barth's solution that contained 88 mM NaCl, 5.0 mM Tris-HCl, 2.4 mM NaHCO3, 1.0 mM KCl, 0.84 mM MgSO4, 0.41 mM CaCl2, 0.33 mM Ca(NO3)2, 0.1 mg/ml gentamycin sulfate, 1.0 U/ml penicillin, and 1 μg/ml streptomycin at a pH of 7.4 and temperatures of 15-17° C. for two to five days before the two-electrode voltage-clamp recordings. When recording, the oocytes were placed in a perfusion chamber and continually washed with the recording solution comprised of 90 mM NaCl, 1.0 mM KCl, 0.50 mM BaCl2, 0.005 mM EDTA, and 10 mM HEPES at a pH of 7.4 and a temperature of 23° C. Glass electrodes with a tip resistance of 0.5 to 2.5 MΩ were obtained from thin-walled glass capillary tubes. Voltage electrodes and current electrodes were filled with 0.3 M and 3.0 M KCl, respectively. The recordings were executed with the oocytes membrane potential holding at −40 m V by an OC-725 amplifier (Warner Instrument Co). All compounds were dissolved in dimethyl sulfoxide (DMSO) as 20 mM stock solutions and future diluted to reach the desired concentration (0.05-0.5% (vol/vol) DMSO) in recording solution comprised of 30 μM glycine and 100 μM glutamate. Each compound was recorded 3-7 times in the least 4 oocytes from at least 2 different Xenopus laevis.
(§3) To evaluate the inhibition of compounds, the concentration-response curve was fitted with the average two-electrode voltage-clamp recording results with the equation
(§4) [formula] • where IC50 is the concentration of compounds that inhibit half maximal of the current response and N is the Hill slope.

[2] = target: T2, recombinant rat GluN1/GluN2C (Rattus norvegicus, UniProt P35439+Q00961); test: as above
T2 construct: expressed in transfected cells; host or cells: Xenopus laevis oocytes injected with cRNA (GluN1:GluN2 ratio 1:2)
T2 sequence (Q00961 20-1237, other chains not shown): as above
Protocol: as §1, §2, §3, §4

[3] = target: T3, recombinant rat GluN1/GluN2D (Rattus norvegicus, UniProt Q62645); test: Two-electrode voltage-clamp recordings in Xenopus laevis oocytes, GluN2D; conditions: for I3 μM/Icontrol (mean ± SEM, %) GluN2D: 3 μM compound with 100 μM glutamate and 30 μM glycine, control set as 1
T3 construct: expressed in transfected cells; host or cells: Xenopus laevis oocytes injected with cRNA (GluN1:GluN2 ratio 1:2)
T3 sequence (Q62645 28-1323, other chains not shown): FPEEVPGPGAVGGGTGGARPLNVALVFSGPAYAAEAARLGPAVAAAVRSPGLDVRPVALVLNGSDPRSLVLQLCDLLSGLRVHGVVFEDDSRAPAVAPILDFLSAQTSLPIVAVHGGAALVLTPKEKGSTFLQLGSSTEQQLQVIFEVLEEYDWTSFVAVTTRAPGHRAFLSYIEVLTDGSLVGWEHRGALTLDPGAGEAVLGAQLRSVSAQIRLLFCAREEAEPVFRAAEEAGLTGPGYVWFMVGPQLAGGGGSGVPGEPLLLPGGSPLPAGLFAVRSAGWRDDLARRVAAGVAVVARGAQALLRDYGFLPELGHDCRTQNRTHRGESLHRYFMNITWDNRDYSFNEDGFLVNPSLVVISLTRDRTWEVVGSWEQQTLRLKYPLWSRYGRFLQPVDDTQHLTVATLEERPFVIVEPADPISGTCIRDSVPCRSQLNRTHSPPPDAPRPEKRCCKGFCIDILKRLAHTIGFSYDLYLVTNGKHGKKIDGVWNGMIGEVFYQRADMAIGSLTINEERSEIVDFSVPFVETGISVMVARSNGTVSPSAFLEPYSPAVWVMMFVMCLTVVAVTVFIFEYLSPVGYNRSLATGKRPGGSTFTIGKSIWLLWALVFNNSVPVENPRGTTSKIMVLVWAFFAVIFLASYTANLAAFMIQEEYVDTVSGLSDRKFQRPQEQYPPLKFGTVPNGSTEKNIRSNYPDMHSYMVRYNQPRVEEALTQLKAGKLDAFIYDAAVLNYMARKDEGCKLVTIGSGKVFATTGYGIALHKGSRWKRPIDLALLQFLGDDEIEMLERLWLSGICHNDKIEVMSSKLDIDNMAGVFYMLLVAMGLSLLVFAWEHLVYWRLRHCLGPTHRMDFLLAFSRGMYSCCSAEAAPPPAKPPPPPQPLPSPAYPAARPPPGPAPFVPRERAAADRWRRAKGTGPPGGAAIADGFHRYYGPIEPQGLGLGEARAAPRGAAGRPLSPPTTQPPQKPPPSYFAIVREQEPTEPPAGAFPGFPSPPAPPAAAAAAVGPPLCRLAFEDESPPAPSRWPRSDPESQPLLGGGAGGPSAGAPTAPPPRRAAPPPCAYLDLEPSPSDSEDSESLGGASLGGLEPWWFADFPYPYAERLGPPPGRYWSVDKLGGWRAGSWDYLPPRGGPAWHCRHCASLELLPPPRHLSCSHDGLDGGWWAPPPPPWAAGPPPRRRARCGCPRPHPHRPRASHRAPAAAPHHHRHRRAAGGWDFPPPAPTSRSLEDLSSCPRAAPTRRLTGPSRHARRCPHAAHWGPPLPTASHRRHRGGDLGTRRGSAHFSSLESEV
Protocol: as §1, §2, §3, §4

[4] = target: T4, recombinant rat GluN1/GluN2D (Rattus norvegicus, UniProt P35439+Q62645); test: as above
T4 construct: expressed in transfected cells; host or cells: Xenopus laevis oocytes injected with cRNA (GluN1:GluN2 ratio 1:2)
T4 sequence (Q62645 28-1323, other chains not shown): as above
Protocol: as §1, §2, §3, §4

[5] = target: T5, recombinant rat GluN1/GluN2A (Rattus norvegicus, UniProt Q00959); test: Two-electrode voltage-clamp recordings in Xenopus laevis oocytes, GluN2A; conditions: for GluN2A IC50: oocytes, 100 μM glutamate and 30 μM glycine; for I3 μM/Icontrol (mean ± SEM, %) GluN2A: 3 μM compound with 100 μM glutamate and 30 μM glycine, control set as 1
T5 construct: expressed in transfected cells; host or cells: Xenopus laevis oocytes injected with cRNA (GluN1:GluN2 ratio 1:2)
Protocol: as §1, §2, §3, §4

[6] = target: T6, recombinant rat GluN1/GluN2B (Rattus norvegicus, UniProt Q00960); test: Two-electrode voltage-clamp recordings in Xenopus laevis oocytes, GluN2B; conditions: for I3 μM/Icontrol (mean ± SEM, %) GluN2B: 3 μM compound with 100 μM glutamate and 30 μM glycine, control set as 1
T6 construct: expressed in transfected cells; host or cells: Xenopus laevis oocytes injected with cRNA (GluN1:GluN2 ratio 1:2)
Protocol: as §1, §2, §3, §4

[7] = target: T7, recombinant rat GluN1/GluN2A (Rattus norvegicus, UniProt P35439+Q00959); test: Two-electrode voltage-clamp recordings in Xenopus laevis oocytes, GluN2A; conditions: oocytes, 100 μM glutamate and 30 μM glycine
T7 construct: expressed in transfected cells; host or cells: Xenopus laevis oocytes injected with cRNA (GluN1:GluN2 ratio 1:2)
Protocol: as §1, §2, §3, §4

[8] = target: T8, recombinant rat GluN1/GluN2B (Rattus norvegicus, UniProt P35439+Q00960); test: Two-electrode voltage-clamp recordings in Xenopus laevis oocytes, GluN2B; conditions: oocytes, 100 μM glutamate and 30 μM glycine
T8 construct: expressed in transfected cells; host or cells: Xenopus laevis oocytes injected with cRNA (GluN1:GluN2 ratio 1:2)
T8 sequence (Q00960 27-1482, other chains not shown): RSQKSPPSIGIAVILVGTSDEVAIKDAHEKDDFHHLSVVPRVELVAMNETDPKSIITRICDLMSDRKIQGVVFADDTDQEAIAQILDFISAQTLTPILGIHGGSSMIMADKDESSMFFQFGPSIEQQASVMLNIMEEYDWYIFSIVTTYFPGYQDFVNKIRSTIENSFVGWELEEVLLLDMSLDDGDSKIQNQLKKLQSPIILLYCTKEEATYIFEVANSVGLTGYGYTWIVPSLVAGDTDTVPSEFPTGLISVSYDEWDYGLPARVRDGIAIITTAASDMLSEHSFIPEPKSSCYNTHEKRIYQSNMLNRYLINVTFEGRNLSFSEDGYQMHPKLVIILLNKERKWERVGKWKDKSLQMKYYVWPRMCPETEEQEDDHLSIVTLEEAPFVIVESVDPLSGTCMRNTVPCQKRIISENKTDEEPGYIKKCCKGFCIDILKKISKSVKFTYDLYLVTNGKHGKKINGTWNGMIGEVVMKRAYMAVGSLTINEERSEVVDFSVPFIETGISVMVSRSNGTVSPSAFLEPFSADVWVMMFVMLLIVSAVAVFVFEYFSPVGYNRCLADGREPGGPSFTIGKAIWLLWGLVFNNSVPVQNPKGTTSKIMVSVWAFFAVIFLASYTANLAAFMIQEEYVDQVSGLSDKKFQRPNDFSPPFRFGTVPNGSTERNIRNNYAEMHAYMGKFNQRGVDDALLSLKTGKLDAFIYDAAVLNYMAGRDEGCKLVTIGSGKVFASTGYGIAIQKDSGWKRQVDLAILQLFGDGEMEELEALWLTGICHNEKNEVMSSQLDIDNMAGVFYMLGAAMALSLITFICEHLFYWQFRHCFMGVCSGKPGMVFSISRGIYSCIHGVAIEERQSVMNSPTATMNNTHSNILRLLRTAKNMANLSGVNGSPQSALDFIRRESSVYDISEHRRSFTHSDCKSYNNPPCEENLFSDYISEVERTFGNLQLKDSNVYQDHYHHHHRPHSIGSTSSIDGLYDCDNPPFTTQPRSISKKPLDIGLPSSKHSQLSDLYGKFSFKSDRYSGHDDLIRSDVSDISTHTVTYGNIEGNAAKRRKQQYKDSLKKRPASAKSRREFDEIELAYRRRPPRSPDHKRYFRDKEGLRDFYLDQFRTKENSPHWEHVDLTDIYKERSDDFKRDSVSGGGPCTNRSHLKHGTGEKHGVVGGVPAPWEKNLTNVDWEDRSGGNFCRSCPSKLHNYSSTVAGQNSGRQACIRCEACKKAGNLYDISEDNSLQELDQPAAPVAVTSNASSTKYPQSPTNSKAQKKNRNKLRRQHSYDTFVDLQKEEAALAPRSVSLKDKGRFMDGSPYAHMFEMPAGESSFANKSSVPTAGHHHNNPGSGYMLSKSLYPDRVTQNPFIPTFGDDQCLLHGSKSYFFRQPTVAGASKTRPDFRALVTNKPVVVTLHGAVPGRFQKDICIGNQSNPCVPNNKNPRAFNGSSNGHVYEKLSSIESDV
Protocol: as §1, §2, §3, §4

[9] = oocytes, 100 μM glutamate and 30 μM glycine
[10] = oocytes, 100 μM glutamate and 30 μM glycine, read-out: GluN2C IC50
[11] = oocytes, 100 μM glutamate and 30 μM glycine, read-out: GluN2D IC50
[12] = read-out: IC50 at GluN2D-containing receptors
[13] = mean IC50 with bottom and top 95% confidence interval, read-out: Avg. GluN2C IC50 (95% CI)
[14] = mean IC50 with bottom and top 95% confidence interval, read-out: Avg. GluN2D IC50 (95% CI)

Row | Compound | IC50 [2, 10] | IC50 [4, 11] | IC50 [8] | GluN2A IC50 [5] | also measured
1 | O=C(O)CCC(=O)N1N=C(c2c(-c3ccc(Cl)cc3)c3ccccc3[nH]c2=O)CC1c1ccc(Cl)nc1 (stereo not shown) [997-92, 4-(3-(4-(4-chlorophenyl)-2-oxo-1,2-dihydroquinolin-3-yl)-5-(6-chloropyridin-3-yl)-4,5-dihydro-1H-pyrazol-1-yl)-4-oxobutanoic acid] | 8 µM | 8 µM |  | NE (NE indicates less than 50% inhibition at 30 μM.) | GluN2C IC50 [1, 9]: weak activity; GluN2D IC50 [3, 9]: weak activity; GluN2B IC50 [6, 9]: NE (NE indicates less than 50% inhibition at 30 μM.)
2 | O=C(O)CC(F)(F)C(=O)N1N=C(c2c(-c3ccc(F)cc3)c3cc(F)ccc3[nH]c2=O)CC1c1ccc(Cl)cc1 (stereo not shown) [997-102, 4-(5-(4-chlorophenyl)-3-(6-fluoro-4-(4-fluorophenyl)-2-oxo-1,2-dihydroquinolin-3-yl)-4,5-dihydro-1H-pyrazol-1-yl)-3,3-difluoro-4-oxobutanoic acid] | 1 µM |  | 7.3 µM |  | IC50 [4, 12]: 0.4 µM; IC50 [7]: 5.9 µM
3 | O=C(O)CC(F)(F)C(=O)N1N=C(c2c(-c3ccc(Cl)cc3)c3ccccc3[nH]c2=O)C[C@@H]1c1ccc(Cl)cc1 [(+)-997-74] | 3.4 µM | 3.9 µM |  |  | I3 μM/Icontrol (mean ± SEM, %) GluN2C [1]: 56 ± 3.8%; IC50 [2, 13]: 3.1 µM; I3 μM/Icontrol (mean ± SEM, %) GluN2D [3]: 55 ± 2.7%; IC50 [4, 14]: 2.24 µM; I3 μM/Icontrol (mean ± SEM, %) GluN2A [5]: 95 ± 0.47%; I3 μM/Icontrol (mean ± SEM, %) GluN2B [6]: 87 ± 1.4%

More lines, main results first:

Row | IC50 [2, 10] | IC50 [4, 11] | IC50 [8] | Compound | GluN2A IC50 [5] | also measured
4 | 12.1 µM | 7.41 µM | 23.1 µM | O=C(O)CC(F)(F)C(=O)N1N=C(c2ccccc2-c2ccc(Cl)cc2)CC1c1ccc(F)cc1 (stereo not shown) [997-116, 4-(3-(4′-chloro-[1,1′-biphenyl]-2-yl)-5-(4-fluorophenyl)-4,5-dihydro-1H-pyrazol-1-yl)-3,3-difluoro-4-oxobutanoic acid] | NE (NE indicates less than 50% inhibition at 30 μM.) | 2B IC50 / 2D IC50 ([3]; ratio of IC50 values): 3
5 | 7.34 µM | 4.67 µM | 15.6 µM | O=C(O)CC(F)(F)C(=O)N1N=C(c2ccccc2-c2cc(Cl)cc(Cl)c2)CC1c1ccc(Cl)cc1 (stereo not shown) [997-123, 4-(5-(4-chlorophenyl)-3-(3′,5′-dichloro-[1,1′-biphenyl]-2-yl)-4,5-dihydro-1H-pyrazol-1-yl)-3,3-difluoro-4-oxobutanoic acid] | NE (NE indicates less than 50% inhibition at 30 μM.) | 
6 | 3.63 µM | 3.57 µM | 14.8 µM | O=C(O)CC(F)(F)C(=O)N1N=C(c2ccccc2-c2ccc(C(F)(F)F)cc2)CC1c1ccc(Cl)cc1 (stereo not shown) [997-124, 4-(5-(4-chlorophenyl)-3-(4′-(trifluoromethyl)-[1,1′-biphenyl]-2-yl)-4,5-dihydro-1H-pyrazol-1-yl)-3,3-difluoro-4-oxobutanoic acid] | NE (NE indicates less than 50% inhibition at 30 μM.) | 
7 | 0.094 µM |  |  | O=C(O)CC(F)(F)C(=O)N1N=C(c2c(-c3ccc(Cl)cc3)c3ccccc3[nH]c2=O)C[C@H]1c1ccc(Cl)cc1 [(−)-997-74] |  | I3 μM/Icontrol (mean ± SEM, %) GluN2C [1]: 9.3 ± 1.8%; IC50 [2, 13]: 0.11 µM; I3 μM/Icontrol (mean ± SEM, %) GluN2D [3]: 3.5 ± 1.0%; fold more potent than the (+)-enantiomer at GluN2D ([3]; (−)- versus (+)-enantiomer): 85 fold; IC50 [4, 14]: 0.055 µM; IC50 [4, 12]: 0.046 µM; I3 μM/Icontrol (mean ± SEM, %) GluN2A [5]: 67 ± 3.9%; I3 μM/Icontrol (mean ± SEM, %) GluN2B [6]: 73 ± 4.8%
